The values below come from PubChem BioAssay (NCI).

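48-hour exposure; five concentrations; linearly interpolated endpoints. GI50 marks 50% less growth. TGI: concentration producing complete growth inhibition.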 Some results are limits rather than exact numbers.

Test systems include RPMI-8226 leukemia; EKVX NSCLC; MALME-3M melanoma; ACHN renal; SK-OV-3 ovarian; OVCAR-8 ovarian; NCI-H226 lung; HOP-92 NSCLC; SNB-75 CNS; SR leukemia.
What all share (assay): NCI-60 cell line screen, 48 h

As to `COc1ccc(OC)c2c1C(=O)C1CC1(Br)C2=O` (configuration not stated), the TGI with RPMI-8226 leukemia, with EKVX NSCLC, in the assay with MALME-3M melanoma, with ACHN renal, in the assay on SK-OV-3 ovarian and in the assay on OVCAR-8 ovarian was > 100 µM throughout.

Consider `COc1ccc(/C=N/N=C(\N)NO)c(OC)c1`, for which the TGI with RPMI-8226 leukemia, with EKVX NSCLC, in the assay on MALME-3M melanoma, in the assay with NCI-H226 lung, in the assay on ACHN renal and in the assay with SK-OV-3 ovarian was > 100 µM throughout. Also, the TGI in the assay on HOP-92 NSCLC and with OVCAR-8 ovarian was > 100 µM in each case.

In the case of `COc1ccc2c(c1)C(=O)c1c-2c(N(C)C)nc2ccccc12`, the GI50 in the assay on RPMI-8226 leukemia, in the assay on EKVX NSCLC, with MALME-3M melanoma, in the assay on NCI-H226 lung, with ACHN renal and with SK-OV-3 ovarian was > 100 µM throughout. The figures for the GI50 with HOP-92 NSCLC, with OVCAR-8 ovarian and in the assay on SNB-75 CNS were 72.6 µM, > 100 µM and 57.6 µM, respectively. Also, the TGI in the assay on RPMI-8226 leukemia, in the assay on EKVX NSCLC, in the assay with MALME-3M melanoma, in the assay with NCI-H226 lung, with ACHN renal and in the assay on SK-OV-3 ovarian was > 100 µM in each case. For the same molecule, the TGI in the assay on HOP-92 NSCLC, with OVCAR-8 ovarian and in the assay with SNB-75 CNS was > 100 µM throughout.

As to `Cc1ccc(Nc2nc(C)c(C(/C=C/c3ccc(/C=C/C(=N/NC(=O)C[n+]4ccccc4)c4sc(Nc5ccc(C)cc5[N+](=O)[O-])nc4C)cc3)=N\NC(=O)C[n+]3ccccc3)s2)c([N+](=O)[O-])c1`, the TGI in the assay on EKVX NSCLC was > 100 µM; in the assay on SR leukemia, > 100 µM; with MALME-3M melanoma it was > 100 µM; in the assay on NCI-H226 lung it was 84.5 µM; in the assay on ACHN renal, > 100 µM; in the assay with SK-OV-3 ovarian, > 100 µM. Moreover, the TGI with OVCAR-8 ovarian and in the assay with SNB-75 CNS was > 100 µM each time.

As for `COC(=O)c1cc(Cl)ccc1NC(=O)c1ccc([N+](=O)[O-])cc1`, the TGI in the assay with RPMI-8226 leukemia was 69.4 µM; in the assay on EKVX NSCLC it was > 100 µM; with MALME-3M melanoma, 90.6 µM; in the assay on NCI-H226 lung, 42.5 µM; in the assay on ACHN renal, 26.5 µM; with SK-OV-3 ovarian, 42.5 µM. Moreover, the TGI in the assay with OVCAR-8 ovarian turned out to be 63.9 µM; with SNB-75 CNS it was 20.7 µM.

Turning to `C[C@]12CCC3[C@@H](CC[C@@H]4c5nonc5CC[C@]34C)C1C/C(=N/O)C2=O` (some centres not stated), the TGI with RPMI-8226 leukemia, in the assay on EKVX NSCLC, in the assay with MALME-3M melanoma, in the assay with NCI-H226 lung, in the assay with ACHN renal and in the assay on SK-OV-3 ovarian was > 100 µM throughout. The TGI is > 100 µM in the assay on HOP-92 NSCLC, > 100 µM in the assay on OVCAR-8 ovarian and 2.98 µM in the assay on SNB-75 CNS.

`O=CN/C=C/c1ccc(O)c(O)c1`: the TGI in the assay with RPMI-8226 leukemia, in the assay with EKVX NSCLC, with MALME-3M melanoma, with NCI-H226 lung, in the assay on ACHN renal and in the assay with SK-OV-3 ovarian was > 100 µM in each case. Also, the TGI in the assay on HOP-92 NSCLC, in the assay on OVCAR-8 ovarian and in the assay on SNB-75 CNS was > 100 µM each time.

With `COc1ccc(C2=NN(c3ccccc3)C[N+](c3ccc(OC)cc3)=N2)cc1`, the TGI was 67.5 µM in the assay with RPMI-8226 leukemia; > 100 µM with EKVX NSCLC; > 100 µM in the assay with SR leukemia; 47.1 µM with MALME-3M melanoma; 64.6 µM with NCI-H226 lung; > 100 µM in the assay on ACHN renal. The TGI with OVCAR-8 ovarian is > 100 µM.

As to `CC(=O)C1C(=O)C(=O)N(c2ccccc2C(C)C)C1=O` (configuration not stated), the TGI in the assay on RPMI-8226 leukemia, in the assay on EKVX NSCLC, in the assay on MALME-3M melanoma, in the assay with NCI-H226 lung, in the assay on ACHN renal and in the assay on SK-OV-3 ovarian was > 100 µM throughout. The TGI in the assay on HOP-92 NSCLC, in the assay on OVCAR-8 ovarian and with SNB-75 CNS was > 100 µM each time.

Consider `CC1=C(CO)C(=O)O[C@@H]([C@@H](C)[C@H]2CC[C@H]3[C@@H]4C[C@@H](O)[C@@]5(O)CC=CC(=O)[C@]5(C)[C@H]4CC[C@]23C)C1`, for which the TGI in the assay with RPMI-8226 leukemia is 92.2 µM; in the assay on EKVX NSCLC, > 100 µM; with MALME-3M melanoma, 44.7 µM; with NCI-H226 lung, > 100 µM; in the assay with ACHN renal, 75.2 µM; in the assay on SK-OV-3 ovarian it was > 100 µM. For the same molecule, the TGI with HOP-92 NSCLC, in the assay with OVCAR-8 ovarian and in the assay with SNB-75 CNS was > 100 µM throughout.

For the molecule `O=C1c2ccccc2-c2c1c1ccccc1c(=O)n2CCN1CCOCC1`, the GI50 in the assay with RPMI-8226 leukemia is 39 µM; in the assay on EKVX NSCLC, 98.8 µM; in the assay with MALME-3M melanoma, > 100 µM; in the assay on NCI-H226 lung, 73.9 µM; in the assay with ACHN renal, 29.8 µM; with SK-OV-3 ovarian, > 100 µM. For the same molecule, the figures for the GI50 in the assay with HOP-92 NSCLC, in the assay with OVCAR-8 ovarian and in the assay with SNB-75 CNS were > 100 µM, 60.6 µM and > 100 µM, respectively. Further, the TGI is > 100 µM in the assay with RPMI-8226 leukemia; > 100 µM in the assay on EKVX NSCLC; > 100 µM with MALME-3M melanoma; > 100 µM in the assay on NCI-H226 lung; 92 µM with ACHN renal; > 100 µM in the assay with SK-OV-3 ovarian. The TGI with HOP-92 NSCLC, in the assay with OVCAR-8 ovarian and in the assay with SNB-75 CNS was > 100 µM throughout.

For the molecule `CN1c2ccccc2N(C)C23N(C)c4ccccc4N(C)C12N(C)c1ccccc1N3C` (configuration not stated), the TGI in the assay with EKVX NSCLC, in the assay on MALME-3M melanoma, in the assay with NCI-H226 lung, in the assay on ACHN renal, with HOP-92 NSCLC and with OVCAR-8 ovarian was > 100 µM throughout. In the assay with SNB-75 CNS, the TGI was > 100 µM.

Turning to `C=C1c2[nH]c3c([N+](=O)[O-])c(OC)ccc3c2CCN1C(C)=O`, the TGI in the assay on RPMI-8226 leukemia, in the assay on EKVX NSCLC, with SR leukemia, in the assay on NCI-H226 lung, in the assay with ACHN renal and in the assay on OVCAR-8 ovarian was > 100 µM in each case. For the same molecule, the TGI in the assay on SNB-75 CNS was 42.5 µM.

For `CN(/N=C/c1cccc2cccnc12)c1ccccc1`, the TGI with RPMI-8226 leukemia, in the assay on EKVX NSCLC, in the assay on MALME-3M melanoma, in the assay on NCI-H226 lung, in the assay with ACHN renal and with SK-OV-3 ovarian was > 100 µM in each case. The TGI with HOP-92 NSCLC, with OVCAR-8 ovarian and in the assay with SNB-75 CNS was > 100 µM in each case.
